Where two headings read alike, the source gives them in different places.
How the values were obtained:
[1] = system: HCV genotype 1a (strain H77) subgenomic replicon with NS3 resistance mutation R155K in Huh-7 cells; experiment: HCV replicon RNA replication assay (NS3 protease variants), genotype 1a R155K; type: cell-based; details: Hepatitis C virus
[2] = system: HCV genotype 1b (Con-1) subgenomic replicon with NS3 resistance mutation D168V in Huh-7 cells; experiment: HCV replicon RNA replication assay (NS3 protease variants), genotype 1b D168V; type: cell-based; details: Hepatitis C virus
[3] = Huh-7, 72 h, read-out: R155K 1a EC50 (nM)
[4] = Huh-7, 72 h, read-out: D168V 1b EC50 (nM)
[5] = Huh-7, read-out: R155K 1a Ec50 (nM)
[6] = Huh-7, read-out: D168V 1b Ec50 (nM)

Compound	EC50 [1, 3] [nM]	EC50 [2, 4] [nM]	EC50 [1, 5] [nM]	EC50 [2, 6] [nM]
CCOc1cc(O[C@@H]2C[C@H]3C(=O)N[C@]4(C(=O)NS(=O)(=O)C5(C)CC5)C[C@H]4/C=C\CCCCC[C@H](NC(=O)N4CCC4)C(=O)N3C2)c2ccc(OC)c(C)c2n1 [Compound 2015, (2R,6S,12Z,13aS,14aR,16aS)-6-[(azetidin-1-ylcarbonyl)amino]-2-[(2-ethoxy-7-methoxy-8-methylquinolin-4-yl)oxy]-N-[(1-methylcyclopropyl)sulfonyl]-5,16-dioxo-1,2,3,6,7,8,9,10,11,13a,14,15,16,16a-tetradecahydrocyclopropa[e]pyrrolo[1,2-a][1,4]diazacyclopentadecine-14a(5H)-carboxamide]	5.4	0.67	–	–
COc1ccc2c(O[C@@H]3C[C@H]4C(=O)N[C@]5(C(=O)NS(=O)(=O)C6(C)CC6)C[C@H]5/C=C\CCCCC[C@H](NC(=O)N(C)C)C(=O)N4C3)cc(OC(C)C)nc2c1Br [Compound 2016, (2R,6S,12Z,13aS,14aR,16aS)-2-{[8-bromo-7-methoxy-2-(propan-2-yloxy)quinolin-4-yl]oxy}-6-[(dimethylcarbamoyl)amino]-N-[(1-methylcyclopropyl)sulfonyl]-5,16-dioxo-1,2,3,6,7,8,9,10,11,13a,14,15,16,16a-tetradecahydrocyclopropa[e]pyrrolo[1,2-a][1,4]diazacyclopentadecine-14a(5H)-carboxamide]	2	1	–	–
COc1ccc2c(O[C@@H]3C[C@H]4C(=O)N[C@]5(C(=O)NS(=O)(=O)C6(C)CC6)C[C@H]5/C=C\CCCCC[C@H](NC(=O)N5CCC5)C(=O)N4C3)cc(OCC(F)(F)F)nc2c1C [Compound 2017, (2R,6S,12Z,13aS,14aR,16aS)-6-[(azetidin-1-ylcarbonyl)amino]-2-{[7-methoxy-8-methyl-2-(2,2,2-trifluoroethoxy)quinolin-4-yl]oxy}-N-[(1-methylcyclopropyl)sulfonyl]-5,16-dioxo-1,2,3,6,7,8,9,10,11,13a,14,15,16,16a-tetradecahydrocyclopropa[e]pyrrolo[1,2-a][1,4]diazacyclopentadecine-14a(5H)-carboxamide]	6.3	1.1	–	–
Cc1c(F)ccc2c(O[C@@H]3C[C@H]4C(=O)N[C@]5(C(=O)NS(=O)(=O)C6(C)CC6)C[C@H]5/C=C\CCCCC[C@H](NC(=O)N(C)C)C(=O)N4C3)cc(OC(C)C)nc12 [Compound 2018, (2R,6S,12Z,13aS,14aR,16aS)-6-[(dimethylcarbamoyl)amino]-2-{[7-fluoro-8-methyl-2-(propan-2-yloxy)quinolin-4-yl]oxy}-N-[(1-methylcyclopropyl)sulfonyl]-5,16-dioxo-1,2,3,6,7,8,9,10,11,13a,14,15,16,16a-tetradecahydrocyclopropa[e]pyrrolo[1,2-a][1,4]diazacyclopentadecine-14a(5H)-carboxamide]	5.7	1.2	–	–
CCOc1cc(O[C@@H]2C[C@H]3C(=O)N[C@]4(C(=O)NS(=O)(=O)C5(C)CC5)C[C@H]4/C=C\CCCCC[C@H](NC(=O)N(C)C)C(=O)N3C2)c2ccc(OC)c(Br)c2n1 [Compound 2019, (2R,6S,12Z,13aS,14aR,16aS)-2-[(8-bromo-2-ethoxy-7-methoxyquinolin-4-yl)oxy]-6-[(dimethylcarbamoyl)amino]-N-[(1-methylcyclopropyl)sulfonyl]-5,16-dioxo-1,2,3,6,7,8,9,10,11,13a,14,15,16,16a-tetradecahydrocyclopropa[e]pyrrolo[1,2-a][1,4]diazacyclopentadecine-14a(5H)-carboxamide]	5.2	1.4	–	–
COc1ccc2c(O[C@@H]3C[C@H]4C(=O)N[C@]5(C(=O)NS(=O)(=O)C6(C)CC6)C[C@H]5/C=C\CCCCC[C@H](NC(=O)N5CCCC5)C(=O)N4C3)cc(OC(C)C)nc2c1C [Compound 2020, (2R,6S,12Z,13aS,14aR,16aS)-2-{[7-methoxy-8-methyl-2-(propan-2-yloxy)quinolin-4-yl]oxy}-N-[(1-methylcyclopropyl)sulfonyl]-5,16-dioxo-6-[(pyrrolidin-1-ylcarbonyl)amino]-1,2,3,6,7,8,9,10,11,13a,14,15,16,16a-tetradecahydrocyclopropa[e]pyrrolo[1,2-a][1,4]diazacyclopentadecine-14a(5H)-carboxamide]	4	1.4	–	–
COc1ccc2c(O[C@@H]3C[C@H]4C(=O)N[C@]5(C(=O)NS(=O)(=O)C6(C)CC6)C[C@H]5/C=C\CCCCC[C@H](NC(=O)N5CC(C)(C)C5)C(=O)N4C3)cc(OC(C)C)nc2c1C [Compound 2021, (2R,6S,12Z,13aS,14aR,16aS)-6-{[(3,3-dimethylazetidin-1-yl)carbonyl]amino}-2-{[7-methoxy-8-methyl-2-(propan-2-yloxy)quinolin-4-yl]oxy}-N-[(1-methylcyclopropyl)sulfonyl]-5,16-dioxo-1,2,3,6,7,8,9,10,11,13a,14,15,16,16a-tetradecahydrocyclopropa[e]pyrrolo[1,2-a][1,4]diazacyclopentadecine-14a(5H)-carboxamide]	3	1.6	–	–
Cc1c(O)ccc2c(O[C@@H]3C[C@H]4C(=O)N[C@]5(C(=O)NS(=O)(=O)C6(C)CC6)C[C@H]5/C=C\CCCCC[C@H](NC(=O)N(C)C)C(=O)N4C3)cc(OC(C)C)nc12 [Compound 2022, (2R,6S,12Z,13aS,14aR,16aS)-6-[(dimethylcarbamoyl)amino]-2-{[7-hydroxy-8-methyl-2-(propan-2-yloxy)quinolin-4-yl]oxy}-N-[(1-methylcyclopropyl)sulfonyl]-5,16-dioxo-1,2,3,6,7,8,9,10,11,13a,14,15,16,16a-tetradecahydrocyclopropa[e]pyrrolo[1,2-a][1,4]diazacyclopentadecine-14a(5H)-carboxamide]	4.9	1.8	–	–
CC[C@@H]1C[C@]1(NC(=O)[C@@H]1C[C@@H]2CN1C(=O)[C@H](C(C)(C)C)NC(=O)OCC(C)(C)CCCCc1cccc3c1CN(C3)C(=O)O2)C(=O)NS(=O)(=O)C1CC1 [reference compound]	–	–	1200	4400
CC(C)(C)OC(=O)N[C@H]1CCCCC/C=C\C2C[C@@]2(C(=O)NS(=O)(=O)C2CC2)NC(=O)[C@@H]2C[C@@H](OC(=O)N3Cc4cccc(F)c4C3)CN2C1=O (stereo partly shown) [reference compound]	–	–	690	120
COc1ccc2c(C[C@H]3CC4C(=O)N(C)CCCC/C=C\[C@H]5C[C@]5(C(=O)NS(=O)(=O)C5CC5)NC(=O)[C@@H]4C3)cc(-c3nc(C(C)C)cs3)nc2c1C (stereo partly shown) [reference compound]	–	–	300	4400

From patent publication US20110294778A1, “HEPATITIS C INHIBITOR COMPOUNDS” (priority 2009, published 2011)
